Experimental data as given in patent publication US20260132128A1, “COMPOUND FOR RECOVERING P53 MUTATION FUNCTION AND USE THEREOF” (SHENZHEN ZHONGGE BIOLOGICAL TECHNOLOGY CO., LTD., priority 2022, published 2026).
Marks after values point to notes of the source that are not given here.

Tests used:
p53 Y220C [1] = biological target: T1, p53 Y220C (Homo sapiens, UniProt P04637, P309S/R273H/Y220C); assay: DNA binding test (HTRF): binding of P53Y220C protein to DNA; assay type: biochemical; settings: HTRF, activation of p53 Y220C (aa 94-312) binding to biotin DNA
T1 construct: a truncated mutant containing only amino acids 94-312 of p53; made in house; host or cells: E. coli
Method: (§1) In order to detect the ability of the aforementioned compounds to increase the binding of P53Y220C protein to DNA, the binding activity of p53 Y220C was measured by homogeneous time-resolved fluorescence (HTRF). Recombinant His-tagged p53 Y220C for HTRF measurement was expressed in bacteria E. coli. The recombinant protein was a truncated mutant containing only amino acids 94-312 of p53, and its sequence was […] […] VEGNLR […] TFRh[…] […]. The sense strand of the DNA double strand was 5′-[…]-3′, with a biotin tag at the 5′ end for activity assay, and the antisense strand was 5′-[…]-3′ 40 mL of assay buffer (20 mM Tris HCL, pH 7.5, 50 mM NaCl, 2 mM MgCl2, 0.02% Tween 20, 0.01% BSA, 1 mM DTT) was prepared. 10 mM compound was prepared and subjected to 3-fold dilution to obtain 10 dose gradient dilutions of the compound. 20 nL of the compound was added to a 384-well assay plate (PerkinElmer 6007299) using an Echo 655 Liquid Handler. P53Y220C protein was dissolved in assay buffer to reach a final concentration of 150 nM, and 5 μL thereof was added to each well, and incubated at room temperature for 5 min. DNA was dissolved in assay buffer to reach a final concentration of 150 nM, and 5 μL thereof was added to each well, and incubated at room temperature for 15 min. Anti 6HIS-XL665 (Cisbio 61HISXLB) was dissolved in assay buffer to reach a final concentration of 20 nM, and 5 μL thereof was added to each well. Streptavidin-Eu cryptate (Cisbio 610SAKLA) was dissolved in assay buffer to reach a final concentration of 0.625 nM, and 5 μL thereof was added to each well, and incubated at 27° C. for 1 hour. The plate was then read for signal values on an Envision (PerkinElmer 2105-0020) plate reader at 665 nm and 615 nm, respectively. […] Activation rate={(A-C)/(C)}*100%, A=(signal value at 665 nm/signal value at 615 nm); C=average signal of negative control (wherein, negative control referred to 0.1% DMSO).

p53 Y220C [2] = biological target: T2, p53 Y220C (Homo sapiens, UniProt P04637, Y220C); assay: as above; assay type: biochemical; settings: multiple ratio of EC50 of the compound to the reference compound, DNA binding test
T2 construct: a truncated mutant containing only amino acids 94-312 of p53; made in house; host or cells: E. coli
Method: as §1

NUGC-3 cells = assay: NUGC-3 cell proliferation assay (CTG); assay type: cell-based, human; settings: for Compound GI50 (nM)/Reference compound GI50 (nM): multiple ratio of GI50 of the compound to the reference compound; for GI50: Homo sapiens, NUGC-3, 144 h, 6 days, CTG
Method: In order to detect the inhibitory effect of the aforementioned compounds on the proliferation ability of NUGC-3 cells, 250 NUGC-3 cells (Nanjing Cobioer Biosciences Co., Ltd., CBP60492) were seeded into a 384-well plate (Corning 3765), 35 μL per well, and incubated overnight in a constant temperature incubator at 37° C. and 5% CO2. Then, 40 nL of the compound was added to the 384-well plate using an Echo 655 Liquid Handler, with a maximum final concentration of 10 μM, 1:3 serial dilutions, and a total of 10 doses. The culture was performed at 37° C. and 5% CO2 for 6 days. The plate was taken out from the incubator and equilibrated at room temperature for 10 minutes. 20 μL of CTG (Promage G7572) was added to each well of the plate according to the platemap. The plate was centrifuged at 1000 rpm for 1 min. The lysis of cells was induced by mixing on a shaker for 2 min. The plate was centrifuged at 1000 rpm for 1 min. Incubation was performed at room temperature for 10 min to stabilize luminescence signals. Luminescence values were recorded by Envision (PerkinElmer 2105-0020). GraphPad 9.0 was used to fit the inhibition rate and compound concentration into a nonlinear regression curve (dose response-variable slope) to calculate GI50, inhibition rate={1−(A−B)/(C−B)}*100%, A=signal value of compound; B=average signal of blank control; C=average signal of negative control (wherein negative control was 0.1% DMSO).

Compound	EC50 (p53 Y220C [1])	Compound EC50 (nM)/Reference compound EC50 (nM) (p53 Y220C [2])	Compound GI50 (nM)/Reference compound GI50 (nM) (NUGC-3 cells)	GI50 (NUGC-3 cells)
Cc1cc[nH]c1C(=O)NCC#Cc1nc2c(NC3CCN(C)CC3)cccn2c1CC(F)(F)F [Compound 28]	500 to 1000 nM	C (C: EC50 of the compound≥3*EC50 of the reference compound)	C (C: GI50 of the compound ≥ 3 * GI50 of the reference compound)	
CCNC(=O)c1ccc(NCC#Cc2nc3c(N[C@@H]4CC[C@@H](N5CC6(COC6)C5)C[C@@H]4F)cccn3c2CC(F)(F)F)c(OC)c1 [Compound 50]	< 100 nM	A (A: EC50 of the compound≤EC50 of the reference compound)	C (C: GI50 of the compound ≥ 3 * GI50 of the reference compound)	
CNC(=O)c1ccc(NCC#Cc2nc3c(NC4CCC(C)(O)CC4)cccn3c2CC(F)(F)F)c(OC)c1 (stereo not shown) [Compound 25]	100 to 500 nM	C (C: EC50 of the compound≥3*EC50 of the reference compound)	C (C: GI50 of the compound ≥ 3 * GI50 of the reference compound)	≥ 5000 nM
COc1cc(S(N)(=O)=O)ccc1NCC#Cc1nc2c(NC3CCN(C)CC3)cccn2c1CC(F)(F)F [Compound 12]	100 to 500 nM	B (B: EC50 of the reference compound<EC50 of the compound≤3.0*EC50 of the reference compound)	C (C: GI50 of the compound ≥ 3 * GI50 of the reference compound)	≥ 5000 nM
CN1CCC(Nc2cccn3c(CC(F)(F)F)c(-c4nnc(CNC(=O)c5ccn(C(C)(C)C)c5)s4)nc23)CC1 [Compound 19]	100 to 500 nM	B (B: EC50 of the reference compound<EC50 of the compound≤3.0*EC50 of the reference compound)	C (C: GI50 of the compound ≥ 3 * GI50 of the reference compound)	≥ 5000 nM
COc1cc(S(=N)(=O)C2CC2)ccc1NCC#Cc1cc2c(NC3CCN(C)CC3F)cccc2n1CC(F)(F)F (single isomer, unassigned) [Compound 39d]	< 100 nM	A (A: EC50 of the compound≤EC50 of the reference compound)	A (A: GI50 of the compound ≤ GI50 of the reference compound)	
COc1cc(S(C)(=N)=O)ccc1NCC#Cc1nc2c(NC3CCN(C)CC3)cccn2c1CC(F)(F)F (stereo not shown) [Compound 15]	100 to 500 nM	C (C: EC50 of the compound≥3*EC50 of the reference compound)	C (C: GI50 of the compound ≥ 3 * GI50 of the reference compound)	< 1000 nM
CNC(=O)c1ccc(NCC#Cc2nc3c(NC4CCN(C)CC4)cncn3c2CC(F)(F)F)c(OC)c1 [Compound 2]	≥ 1000 nM	C (C: EC50 of the compound≥3*EC50 of the reference compound)	C (C: GI50 of the compound ≥ 3 * GI50 of the reference compound)	
